PubChem BioAssay AID2043 (NMMLSC, 2009)
pKi: −log10 of the molar value. Active and inactive are the calls of the source. How the calls were made is not given here.

Biological target: GTPase HRas, activated mutant (human)
Experiment: inhibitors of GTP binding, activated Ras, SAR follow-up, biochemical, additional analogs, activated mutant, multiplex flow cytometry, Ki (AID 2043)
Conditions: bead-based flow cytometry multiplex, fluorescent GTP binding; for pKi: measured here: Ki derived from EC50

EC50	pKi	SMILES
inactive	6.25	O=C(C#Cc1ccccc1)c1ccccc1[N+](=O)[O-]
inactive	5.87	O=C(C#Cc1ccccc1)c1ccc(F)cc1
inactive	7.52	CC(C(=O)O)c1cccc(C(=O)c2ccccc2)c1 (stereo unspecified)
